Measurements reported in patent publication US20240109881A1, “Heteroaryl Compounds as Ligand Directed Degraders of IRAK4” (Bristol-Myers Squibb Company, priority 2022, published 2024).

Target: T1, IRAK4 (Homo sapiens, UniProt Q9NWZ3)
T1 construct: endogenous in cells; host or cells: THP-1 cells
T1 sequence (Q9NWZ3 1-460): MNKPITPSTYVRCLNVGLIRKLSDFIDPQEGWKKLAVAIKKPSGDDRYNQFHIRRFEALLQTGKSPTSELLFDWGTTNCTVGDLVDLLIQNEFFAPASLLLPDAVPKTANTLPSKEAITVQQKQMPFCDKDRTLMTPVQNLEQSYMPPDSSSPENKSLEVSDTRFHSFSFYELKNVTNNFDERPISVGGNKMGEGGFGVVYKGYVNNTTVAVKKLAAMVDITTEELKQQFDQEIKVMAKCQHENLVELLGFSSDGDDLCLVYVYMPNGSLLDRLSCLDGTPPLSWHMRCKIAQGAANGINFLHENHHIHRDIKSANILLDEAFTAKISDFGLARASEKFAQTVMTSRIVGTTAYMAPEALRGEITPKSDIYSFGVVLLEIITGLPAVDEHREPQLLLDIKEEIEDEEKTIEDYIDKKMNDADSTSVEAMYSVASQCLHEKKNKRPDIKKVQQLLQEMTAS
Test: LVL THP1 HTRF (THP1 Homogeneous Time Resolved Fluorescence)
Type: cell-based
Details: THP1 cells, 18 h incubation with compound; for DC50: read-out: LVL THP1 HTRF EC50
In short: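 THP-1 cells in phenol red-free RPMI with 10% FBS were dosed with compound (20 nL in DMSO) for 18 h at 37° C. After 2 h lysis, IRAK4 was detected with anti-IRAK4-d2/anti-IRAK4-K HTRF antibodies for 18 h at room temperature and read at 665/615 nm; a parallel CTG plate was run.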

Structure (SMILES) | LVL THP1 HTRF YMIN [%] | DC50 [µM]
C[C@H](C#N)Nc1cc(Nc2ncc(C#N)cn2)ncc1-n1cc([C@H]2CC[C@H](CCN3CCN(c4ccc(C5CCC(=O)NC5=O)cc4)CC3)CC2)nn1 (stereo partly drawn) [P-388] | 3.5 | 0.0111
C[C@H](C#N)Nc1cc(Nc2ncc(C#N)cn2)ncc1-n1cc([C@H]2CC[C@H](CCN3CCN(c4ccc(N5CCC(=O)NC5=O)cc4)CC3)CC2)nn1 [P-389] | 18.9 | 0.18
CC(C)(O)CNc1cc(-n2ncc3cc(C#N)cnc32)ncc1-n1cc([C@H]2CC[C@H](CCN3CCN(c4ccc(C5CCC(=O)NC5=O)cc4)CC3)CC2)nn1 (stereo partly drawn) [P-391] | −0.8 | 0.0037
CCNc1cc(-n2ncc3cc(C#N)cnc32)ncc1-n1cc([C@H]2CC[C@H](CCN3CCN(c4ccc(C5CCC(=O)NC5=O)cc4)CC3)CC2)nn1 (stereo partly drawn) [P-395] | 2.6 | 0.0093
COc1cnc2c(cnn2-c2cc(N[C@H](C)C#N)c(-n3cc([C@H]4CC[C@H](CCN5CCN(c6ccc(C7CCC(=O)NC7=O)cc6)CC5)CC4)nn3)cn2)c1 (stereo partly drawn) [P-397] | 6.2 | 0.0143
COc1cnc(Nc2cc(N[C@H](C)C#N)c(-n3cc([C@H]4CC[C@H](CCN5CCN(c6ccc(C7CCC(=O)NC7=O)cc6)CC5)CC4)nn3)cn2)nc1 (stereo partly drawn) [P-398] | 5.8 | 0.024
N#Cc1cnc2c(cnn2-c2cc(N[C@H]3CCC[C@H]3O)c(-n3cc([C@H]4CC[C@H](CCN5CCN(c6ccc(C7CCC(=O)NC7=O)cc6)CC5)CC4)nn3)cn2)c1 (stereo partly drawn) [P-402] | 1.9 | 0.0033
N#Cc1cnc2c(cnn2-c2cc(N[C@H]3CCC[C@@H]3O)c(-n3cc([C@H]4CC[C@H](CCN5CCN(c6ccc(C7CCC(=O)NC7=O)cc6)CC5)CC4)nn3)cn2)c1 (stereo partly drawn) [P-403] | 3.7 | 0.0025
N#Cc1cnc2c(cnn2-c2cc(NC3CCOCC3)c(-n3cc([C@H]4CC[C@H](CCN5CCN(c6ccc(C7CCC(=O)NC7=O)cc6)CC5)CC4)nn3)cn2)c1 (stereo partly drawn) [P-406] | 1.7 | 0.0076
N#Cc1cnc2c(cnn2-c2cc(NCC3CCOCC3)c(-n3cc([C@H]4CC[C@H](CCN5CCN(c6ccc(C7CCC(=O)NC7=O)cc6)CC5)CC4)nn3)cn2)c1 (stereo partly drawn) [P-407] | 5.6 | 0.0358
N#Cc1cnc2c(cnn2-c2cc(NCC3COC3)c(-n3cc([C@H]4CC[C@H](CCN5CCN(c6ccc(C7CCC(=O)NC7=O)cc6)CC5)CC4)nn3)cn2)c1 (stereo partly drawn) [P-408] | 7.8 | 0.0426
N#Cc1cnc2c(cnn2-c2cc(OC3CC3)c(-n3cc([C@H]4CC[C@H](CCN5CCN(c6ccc(C7CCC(=O)NC7=O)cc6)CC5)CC4)nn3)cn2)c1 (stereo partly drawn) [P-409] | 8.3 | 0.0825
N#Cc1cnc2c(cnn2-c2cc(OCC3CCOCC3)c(-n3cc([C@H]4CC[C@H](CCN5CCN(c6ccc(C7CCC(=O)NC7=O)cc6)CC5)CC4)nn3)cn2)c1 (stereo partly drawn) [P-411] | 90.4 | 1
N#Cc1cnc2c(cnn2-c2cc(NC3CCCC3)c(-n3cc([C@H]4CC[C@H](CCN5CCN(c6ccc(N7CCC(=O)NC7=O)cc6)CC5)CC4)nn3)cn2)c1 [P-412] | 15.2 | 0.16
C[C@H](C#N)Nc1cc(-n2ncc3cc(C#N)cnc32)ncc1C(=O)N[C@H]1CC[C@H](CCN2CCC(c3ccn(C4CCC(=O)NC4=O)c(=O)c3)CC2)CC1 (stereo partly drawn) [P-425] | 0.8 | 0.124
C[C@H](C#N)Nc1cc(-n2ncc3cc(C#N)c(N)nc32)ncc1-n1cc([C@H]2CC[C@H](CCN3CCN(c4ccc(N5CCC(=O)NC5=O)cn4)CC3)CC2)nn1 [P-428] | −0.6 | 0.0032
C[C@H](C#N)Nc1cc(-n2ncc3cc(C#N)cnc32)ncc1C(=O)N[C@H]1CC[C@H](CCN2CC3(CC(c4ccc(N5CCC(=O)NC5=O)cc4)C3)C2)CC1 [P-433] | 37.6 | 0.7
C[C@H](C#N)Nc1cc(-n2ncc3cc(C#N)cnc32)ncc1-n1cc([C@H]2CC[C@H](CCN3CCN(c4ncc(N5CCC(=O)NC5=O)cn4)[C@H](C)C3)CC2)nn1 [P-438] | 2.2 | 0.0034
CC[C@H]1CN(CC[C@H]2CC[C@H](c3cn(-c4cnc(-n5ncc6cc(C#N)cnc65)cc4N[C@H](C)C#N)nn3)CC2)CCN1c1ccc(C2CCC(=O)NC2=O)cc1 (stereo partly drawn) [P-442] | −2.0 | 0.0044
CC[C@@H]1CN(CC[C@H]2CC[C@H](c3cn(-c4cnc(-n5ncc6cc(C#N)c(N)nc65)cc4N[C@H](C)C#N)nn3)CC2)CCN1c1ccc(N2CCC(=O)NC2=O)cn1 [P-446] | −1.4 | 0.0014
CC[C@@H]1CN(CC[C@H]2CC[C@H](c3cn(-c4cnc(-n5ncc6cc(C#N)c(N)nc65)cc4N[C@H](C)C#N)nn3)CC2)CCN1c1ccc(N2CCC(=O)NC2=O)cc1 [P-447] | 0.8 | 0.0006
C[C@H](C#N)Nc1cc(-n2ncc3cc(C#N)cnc32)ncc1-n1cc([C@H]2CC[C@H](CCN3CCC4(C3)CN(c3ccc([C@@]5(C)CCC(=O)NC5=O)cc3)C4)CC2)nn1 [P-448] | 3.9 | 0.0321

Other lines, results leading:

LVL THP1 HTRF YMIN [%] | DC50 [µM] | Structure (SMILES)
−3.4 | 0.0061 | CC[C@@H]1CN(CC[C@H]2CC[C@H](c3cn(-c4cnc(-n5ncc6cc(C#N)cnc65)cc4N[C@H](C)C#N)nn3)CC2)CCN1c1ccc(N2CCC(=O)NC2=O)cc1 [P-393]
8.2 | 0.0431 | C[C@H](C#N)Nc1cc(-n2ncc3cc(C#N)cnc32)ncc1-n1cc([C@H]2CC[C@H](CCN3CCC(c4ccc(N5CCC(=O)NC5=O)cc4)C(F)C3)CC2)nn1 (stereo partly drawn) [P-399]
0.5 | 0.012 | C[C@H](C#N)Nc1cc(-n2ncc3cc(C#N)cnc32)ncc1-n1cc([C@H]2CC[C@H](CCN3CCC(c4ccc(N5CCC(=O)NC5=O)cc4)C(F)(F)C3)CC2)nn1 (stereo partly drawn) [P-401]
−1.3 | 0.0051 | C[C@H](C#N)Nc1cc(-n2ncc3cc(C#N)cnc32)ncc1-n1cc([C@H]2CC[C@H](CCN3CCC(c4ccn(C5CCC(=O)NC5=O)c(=O)c4)CC3)CC2)nn1 (stereo partly drawn) [P-413]
39.6 | 0.979 | C[C@H](C#N)Nc1cc(-n2ncc3cc(C#N)cnc32)ncc1-n1cc([C@H]2CC[C@H](CCN3CCN(Cc4ccc(N5CCC(=O)NC5=O)cc4)CC3)CC2)nn1 [P-422]
8.6 | 0.143 | C[C@H](C#N)Nc1cc(-n2ncc3cc(C#N)cnc32)ncc1-n1cc([C@H]2CC[C@H](CCN3CCN(c4ccc(N5CCC(=O)NC5=O)nn4)CC3)CC2)nn1 [P-423]
1.8 | 0.0013 | C[C@H](C#N)Nc1cc(-n2ncc3cc(C#N)cnc32)ncc1-n1cc([C@H]2CC[C@H](CCN3CC4(CC(c5ccc(N6CCC(=O)NC6=O)c(Cl)c5)C4)C3)CC2)nn1 [P-432]
1.9 | 0.0299 | C[C@H](C#N)Nc1cc(Nc2ncc(C#N)cc2Cl)ncc1-n1cc([C@H]2CC[C@H](CCN3CC4(CC(c5ccc(N6CCC(=O)NC6=O)cc5)C4)C3)CC2)nn1 [P-434]
−5.4 | 0.0003 | C[C@H](C#N)Nc1cc(-n2ncc3cc(C#N)cnc32)ncc1-n1cc([C@H]2CC[C@H](CCN3CCN(c4ccc(N5CCC(=O)NC5=O)c(F)c4)[C@H](C)C3)CC2)nn1 [P-436]
0.0 | 0.0004 | C[C@H](C#N)Nc1cc(-n2ncc3cc(C#N)cnc32)ncc1-n1cc([C@H]2CC[C@H](CCN3CCN(c4ccc(N5CCC(=O)NC5=O)c(Cl)c4)[C@H](C)C3)CC2)nn1 [P-437]
11.2 | 0.0924 | C[C@H](C#N)Nc1cc(-n2ncc3cc(C#N)cnc32)ncc1-n1cc([C@H]2CC[C@H](CCN3CCC4(C3)CN(c3ccc(N5CCC(=O)NC5=O)cc3)C4)CC2)nn1 [P-439]
2.9 | 0.0537 | C[C@H](C#N)Nc1cc(-n2ncc3cc(C#N)cnc32)ncc1-n1cc([C@H]2CC[C@H](CCN3CCN(c4cnc(N5CCC(=O)NC5=O)cn4)[C@H](C)C3)CC2)nn1 [P-440]
−0.1 | 0.0026 | CC[C@@H]1CN(CC[C@H]2CC[C@H](c3cn(-c4cnc(-n5ncc6cc(C#N)cnc65)cc4N[C@H](C)C#N)nn3)CC2)CCN1c1ccc(N2CCC(=O)NC2=O)cc1 [P-441]
−0.6 | 0.0045 | COc1cc(N2CCN(CC[C@H]3CC[C@H](c4cn(-c5cnc(-n6ncc7cc(C#N)cnc76)cc5N[C@H](C)C#N)nn4)CC3)CC2)ccc1N1CCC(=O)NC1=O [P-443]
−1.6 | 0.0052 | C[C@H](C#N)Nc1cc(-n2ncc3cc(C#N)cnc32)ncc1-n1cc([C@H]2CC[C@H](CCN3CC4(CC(c5ccc(N6CCC(=O)NC6=O)c(F)c5)C4)C3)CC2)nn1 [P-444]
4.0 | 0.0658 | CC[C@H]1CN(CC[C@H]2CC[C@H](c3cn(-c4cnc(-n5ncc6cc(C#N)cnc65)cc4N[C@H](C)C#N)nn3)CC2)CCN1c1ccc(N2CCC(=O)NC2=O)cc1 [P-445]
23.7 | 0.424 | C[C@H](C#N)Nc1cc(-n2ncc3cc(C#N)cnc32)ncc1-n1cc([C@H]2CC[C@H](CCN3CC4(CC(c5ccc(N6CCC(=O)NC6=O)cn5)C4)C3)CC2)nn1 [P-449]
